Data on 13 compounds can be found in US10081628B2, “Apoptosis-inducing agents for the treatment of cancer and immune and autoimmune diseases” (AbbVie Inc., priority 2013, dated 2018).

The target of test [1] is GST-Bcl-2 (Homo sapiens, UniProt P10415). Nature of the test: TR-FRET Bcl-2 binding assay (F-Bak peptide probe). The settings on record: GST-Bcl-2 1 nM, F-Bak peptide probe 100 nM, Tb-anti-GST 1 nM; Wang's equation; '<' = below limit of detection. The procedure: Determination of the utility of compounds of this invention as binders to and inhibitors of anti-apoptotic Bcl-2 proteins was performed using the Time Resolved-Fluorescence Resonance Energy Transfer (TR-FRET) Assay. Tb-anti-GST antibody was purchased from Invitrogen (Catalog No. PV4216).
Representative compounds were serially diluted in dimethyl sulfoxide (DMSO) starting at 50 μM (2× starting concentration; 10% DMSO) and 10 μL were transferred into a 384-well plate. The samples are then mixed on a shaker for 1 minute and incubated for an additional 3 hours at room temperature. For each assay, the probe/antibody and protein/probe/antibody were included on each assay plate as negative and positive controls, respectively. Fluorescence was measured on the Envision (Perkin Elmer) using a 340/35 nm excitation filter and 520/525 (F-Bak peptide) and 495/510 nm (Tb-labeled […] antibody) emission filters. Dissociation constants (Ki) are shown in TABLE 2 below and were determined using Wang's equation (Wang Z.-X., An Exact Mathematical Expression For Describing Competitive Binding Of Two Different Ligands To A Protein Molecule. FEBS Lett. 1995, 360:111-4).
The samples were then mixed on a shaker for 1 minute and incubated for an additional 3 hours at room temperature. For each assay, the probe/antibody and protein/probe/antibody were included on each assay plate as negative and positive controls, respectively. Fluorescence was measured on the Envision (Perkin Elmer) using a 340/35 nm excitation filter and 520/525 (F-Bak peptide) and 495/510 nm (Tb-labeled anti-Histidine antibody) emission filters.
Inhibition constants (Ki) for compounds were determined using Wang's equation (Wang Zx. An Exact Mathematical Expression For Describing Competitive Binding Of Two Different Ligands To A Protein Molecule. FEBS Lett. 1995, 360:111-4).
The inhibition constant (Ki) is the dissociation constant of an enzyme-inhibitor complex or a protein/small molecule complex, wherein the small molecule is inhibiting binding of one protein to another protein or peptide. So a large Ki value indicates a low binding affinity and a small Ki value indicates a high binding affinity. […] The compounds are therefore expected to have utility in treatment of diseases during which anti-apoptotic Bcl-2 protein is expressed. Biological Data

In test [2] the test system is RS4;11 cells. Description: RS4;11 cell viability assay (CellTiter Glo). The test is classed as cell-based. The settings on record: 10% human serum, 48 hours. The text has this: The acute lymphoblastic leukemia (ALL) cell line RS4;11 was used as the primary human cell line to assess the cellular activity of Bcl-2 selective agents in vitro and their efficacy in vivo. Previous studies have shown by BH3 profiling, a mitochondrial assay that classifies blocks in the intrinsic apoptotic pathway, that RS4;11 cells were highly dependant on BCL-2 for survival and sensitive to the Bcl-2 family member inhibitor ABT-737 (Blood, 2008, Vol. 111, 2300-2309).
RS4;11 cells were cultured in RPMI-1640 supplemented with 2 mM L-glutamine, 10% FBS, 1 mM sodium pyruvate, 2 mM HEPES, 1% penicillin/streptomycin (Invitrogen), 4.5 g/L glucose and maintained at 37 C containing 5% CO2. To test for the cellular activity of compounds in vitro, cells were treated at 50,000 cells per well in 96-well microtiter plates in the presence of 10% human serum for 48 hours in a humidified chamber with 5% CO2. Cell cytotoxicity EC50 values were assessed using CellTiter Glo (Promega) according to the manufacturer's recommendations. The EC50 values were determined as a percentage of viable cells following treatment compared to the untreated control cells.

Sequence of GST-Bcl-2 (P10415 whole entry): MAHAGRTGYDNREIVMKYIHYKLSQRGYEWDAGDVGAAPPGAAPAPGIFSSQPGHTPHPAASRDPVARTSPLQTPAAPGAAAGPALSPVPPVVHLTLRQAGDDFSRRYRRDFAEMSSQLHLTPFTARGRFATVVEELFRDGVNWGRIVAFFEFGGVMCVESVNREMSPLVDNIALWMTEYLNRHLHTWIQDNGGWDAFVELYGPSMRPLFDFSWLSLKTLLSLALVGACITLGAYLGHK

Consider `CC1(C)CCC(CN2CCN(c3ccc(C(=O)NS(=O)(=O)c4ccc(N5CCOCC5)c([N+](=O)[O-])c4)c(Oc4cnc5[nH]ccc5c4)c3)CC2)=C(c2ccc(Cl)cc2)C1` [Example 8, 4-(4-{[2-(4-chlorophenyl)-4,4-dimethylcyclohex-1-en-1-yl]methyl}piperazin-1-yl)-N-{[4-(morpholin-4-yl)-3-nitrophenyl]sulfonyl}-2-(1H-pyrrolo[2,3-b]pyridin-5-yloxy)benzamide], for which the Ki in test [1] came to 0.7 nM. Moreover, the EC50 in test [2] was over 1000 nM.

In test [1], `CC1(C)CCC(CN2CCN(c3ccc(C(=O)NS(=O)(=O)c4ccc(NCC5(CO)COC5)c([N+](=O)[O-])c4)c(Oc4cnc5[nH]ccc5c4)c3)CC2)=C(c2ccc(Cl)cc2)C1` [Example 11, 4-(4-{[2-(4-chlorophenyl)-4,4-dimethylcyclohex-1-en-1-yl]methyl}piperazin-1-yl)-N-{[4-({[3-(hydroxymethyl)oxetan-3-yl]methyl}amino)-3-nitrophenyl]sulfonyl}-2-(1H-pyrrolo[2,3-b]pyridin-5-yloxy)benzamide] displayed a Ki of under 0.1 nM. The same compound showed an EC50 in test [2] of 15 nM.

Compound `CC1(C)CCC(CN2CCN(c3ccc(C(=O)NS(=O)(=O)c4ccc(NCC5CC(F)(F)C5)c([N+](=O)[O-])c4)c(Oc4cnc5[nH]ccc5c4)c3)CC2)=C(c2ccc(Cl)cc2)C1` [Example 28, 4-(4-{[2-(4-chlorophenyl)-4,4-dimethylcyclohex-1-en-1-yl]methyl}piperazin-1-yl)-N-[(4-{[(3,3-difluorocyclobutyl)methyl]amino}-3-nitrophenyl)sulfonyl]-2-(1H-pyrrolo[2,3-b]pyridin-5-yloxy)benzamide] registered a Ki in test [1] of under 0.1 nM. Besides, in test [2], it took 120 nM to reach a half-maximal effect (EC50).

`CC1(C)CCC(CN2CCN(c3ccc(C(=O)NS(=O)(=O)c4ccc(NCC5CCN(S(=O)(=O)C(F)(F)F)CC5)c([N+](=O)[O-])c4)c(Oc4cnc5[nH]ccc5c4)c3)CC2)=C(c2ccc(Cl)cc2)C1` [Example 29, 4-(4-{[2-(4-chlorophenyl)-4,4-dimethylcyclohex-1-en-1-yl]methyl}piperazin-1-yl)-N-({3-nitro-4-[({1-[(trifluoromethyl)sulfonyl]piperidin-4-yl}methyl)amino]phenyl}sulfonyl)-2-(1H-pyrrolo[2,3-b]pyridin-5-yloxy)benzamide] yielded a Ki in test [1] of under 0.1 nM. This compound registered an EC50 in test [2] of 57 nM.

As to `CC1(C)CCC(CN2CCN(c3ccc(C(=O)NS(=O)(=O)c4ccc(NCC5CCN(S(C)(=O)=O)CC5)c([N+](=O)[O-])c4)c(Oc4cnc5[nH]ccc5c4)c3)CC2)=C(c2ccc(Cl)cc2)C1` [Example 30, 4-(4-{[2-(4-chlorophenyl)-4,4-dimethylcyclohex-1-en-1-yl]methyl}piperazin-1-yl)-N-{[4-({[1-(methylsulfonyl)piperidin-4-yl]methyl}amino)-3-nitrophenyl]sulfonyl}-2-(1H-pyrrolo[2,3-b]pyridin-5-yloxy)benzamide], the Ki in test [1] was under 0.1 nM. The compound also registered a concentration for a half-maximal effect (EC50) in test [2] of 27 nM.

Compound `CC1(C)CCC(CN2CCN(c3ccc(C(=O)NS(=O)(=O)c4ccc(NCC5CC[S+]([O-])CC5)c([N+](=O)[O-])c4)c(Oc4cnc5[nH]ccc5c4)c3)CC2)=C(c2ccc(Cl)cc2)C1` (centres unmarked) [Example 32, 4-(4-{[2-(4-chlorophenyl)-4,4-dimethylcyclohex-1-en-1-yl]methyl}piperazin-1-yl)-N-[(3-nitro-4-{[(1-oxidotetrahydro-2H-thiopyran-4-yl)methyl]amino}phenyl)sulfonyl]-2-(1H-pyrrolo[2,3-b]pyridin-5-yloxy)benzamide] had a Ki in test [1] of under 0.1 nM. For the same compound, the EC50 in test [2] worked out at 43 nM.

`CC1(C)CCC(CN2CCN(c3ccc(C(=O)NS(=O)(=O)c4ccc(NC[C@H]5CCOC(C)(C)C5)c([N+](=O)[O-])c4)c(Oc4cnc5[nH]ccc5c4)c3)CC2)=C(c2ccc(Cl)cc2)C1` [Example 33, 4-(4-{[2-(4-chlorophenyl)-4,4-dimethylcyclohex-1-en-1-yl]methyl}piperazin-1-yl)-N-{[4-({[(4S)-2,2-dimethyltetrahydro-2H-pyran-4-yl]methyl}amino)-3-nitrophenyl]sulfonyl}-2-(1H-pyrrolo[2,3-b]pyridin-5-yloxy)benzamide] displayed an inhibition constant Ki in test [1] of under 0.1 nM. Further, in test [2], the EC50 turned out to be 44 nM.

As to `CC1(C)CCC(CN2CCN(c3ccc(C(=O)NS(=O)(=O)c4ccc(NCC5(C)COC5)c([N+](=O)[O-])c4)c(Oc4cnc5[nH]ccc5c4)c3)CC2)=C(c2ccc(Cl)cc2)C1` [Example 38, 4-(4-{[2-(4-chlorophenyl)-4,4-dimethylcyclohex-1-en-1-yl]methyl}piperazin-1-yl)-N-[(4-{[(3-methyloxetan-3-yl)methyl]amino}-3-nitrophenyl)sulfonyl]-2-(1H-pyrrolo[2,3-b]pyridin-5-yloxy)benzamide], the Ki in test [1] was under 0.1 nM. Moreover, it took 30 nM to reach a half-maximal effect in test [2] (EC50).

In test [1], `COC1(CNc2ccc(S(=O)(=O)NC(=O)c3ccc(N4CCN(CC5=C(c6ccc(Cl)cc6)CC(C)(C)CC5)CC4)cc3Oc3cnc4[nH]ccc4c3)cc2[N+](=O)[O-])COCCOC1` [Example 40, 4-(4-{[2-(4-chlorophenyl)-4,4-dimethylcyclohex-1-en-1-yl]methyl}piperazin-1-yl)-N-[(4-{[(6-methoxy-1,4-dioxepan-6-yl)methyl]amino}-3-nitrophenyl)sulfonyl]-2-(1H-pyrrolo[2,3-b]pyridin-5-yloxy)benzamide] displayed a Ki of under 0.1 nM. The same compound returned an EC50 in test [2] of 76 nM.

In turn, `CC1(C)CCC(CN2CCN(c3ccc(C(=O)NS(=O)(=O)c4ccc(NC[C@H]5C[C@H](C#N)C5)c([N+](=O)[O-])c4)c(Oc4cnc5[nH]ccc5c4)c3)CC2)=C(c2ccc(Cl)cc2)C1` [Example 41, 4-(4-{[2-(4-chlorophenyl)-4,4-dimethylcyclohex-1-en-1-yl]methyl}piperazin-1-yl)-N-[(4-{[(trans-3-cyanocyclobutyl)methyl]amino}-3-nitrophenyl)sulfonyl]-2-(1H-pyrrolo[2,3-b]pyridin-5-yloxy)benzamide] showed a Ki in test [1] of under 0.1 nM. In addition, a half-maximal effect in test [2] (EC50) was put at 47 nM.

The compound `CC1(C)CCC(CN2CCN(c3ccc(C(=O)NS(=O)(=O)c4ccc(NC[C@H]5C[C@@H](C#N)C5)c([N+](=O)[O-])c4)c(Oc4cnc5[nH]ccc5c4)c3)CC2)=C(c2ccc(Cl)cc2)C1` [Example 42, 4-(4-{[2-(4-chlorophenyl)-4,4-dimethylcyclohex-1-en-1-yl]methyl}piperazin-1-yl)-N-[(4-{[(cis-3-cyanocyclobutyl)methyl]amino}-3-nitrophenyl)sulfonyl]-2-(1H-pyrrolo[2,3-b]pyridin-5-yloxy)benzamide] gave a Ki in test [1] of under 0.1 nM. Also, the response in test [2] was half-maximal at 56 nM (EC50).

In test [1], `CC1(C)CCC(CN2CCN(c3ccc(C(=O)NS(=O)(=O)c4ccc(NCC5CCS(=O)(=O)CC5)c([N+](=O)[O-])c4)c(Oc4cnc5[nH]ccc5c4)c3)CC2)=C(c2ccc(Cl)cc2)C1` [Example 43, 4-(4-{[2-(4-chlorophenyl)-4,4-dimethylcyclohex-1-en-1-yl]methyl}piperazin-1-yl)-N-[(4-{[(1,1-dioxidotetrahydro-2H-thiopyran-4-yl)methyl]amino}-3-nitrophenyl)sulfonyl]-2-(1H-pyrrolo[2,3-b]pyridin-5-yloxy)benzamide] returned a Ki of under 0.1 nM. Besides, the EC50 in test [2] came to 31 nM.

As for `C[C@H]1CO[C@@H](CNc2ccc(S(=O)(=O)NC(=O)c3ccc(N4CCN(CC5=C(c6ccc(Cl)cc6)CC(C)(C)CC5)CC4)cc3Oc3cnc4[nH]ccc4c3)cc2[N+](=O)[O-])CO1` [Example 45, 4-(4-{[2-(4-chlorophenyl)-4,4-dimethylcyclohex-1-en-1-yl]methyl}piperazin-1-yl)-N-{[4-({[(2S,5S)-5-methyl-1,4-dioxan-2-yl]methyl}amino)-3-nitrophenyl]sulfonyl}-2-(1H-pyrrolo[2,3-b]pyridin-5-yloxy)benzamide], in test [1], the Ki is under 0.1 nM. Moreover, in test [2], the EC50 worked out at 19 nM.
